Source: the NIST ThermoML archive (doi:10.1016/j.jct.2012.09.016)

Tests used:
[1] = Liquid, Vibrating tube method
[2] = molar heat capacity at constant pressure; details: Liquid, Small sample (50 mg) DSC

CCCCCN [1-pentanamine]
Details | mass density, [1] [kg/m3] | molar heat capacity at constant pressure, [2] [J/K/mol]
293.15 K, 100 kPa | 754 | –
293.15 K, 10000 kPa | 760.8 | –
293.15 K, 20000 kPa | 767.2 | –
293.15 K, 30000 kPa | 773.3 | –
293.15 K, 40000 kPa | 779 | –
293.15 K, 50000 kPa | 784.3 | –
293.15 K, 60000 kPa | 789.3 | –
293.15 K, 70000 kPa | 794 | –
293.15 K, 80000 kPa | 798.5 | –
293.15 K, 90000 kPa | 802.9 | –
293.15 K, 100000 kPa | 806.9 | –
293.15 K, 110000 kPa | 810.9 | –
293.15 K, 120000 kPa | 814.6 | –
293.15 K, 130000 kPa | 818.2 | –
293.15 K, 140000 kPa | 821.8 | –
313.15 K, 100 kPa | – | 221.7
313.15 K, 20000 kPa | – | 219.7
313.15 K, 40000 kPa | – | 218.3
313.15 K, 60000 kPa | – | 217.9
323.15 K, 100 kPa | – | 222.7
323.15 K, 20000 kPa | – | 220.1
323.15 K, 40000 kPa | – | 218.7
323.15 K, 60000 kPa | – | 218.3
333.15 K, 100 kPa | – | 223.9
333.15 K, 20000 kPa | – | 220.8
333.15 K, 40000 kPa | – | 219.4
333.15 K, 60000 kPa | – | 218.9
343.15 K, 100 kPa | – | 225.3
343.15 K, 20000 kPa | – | 221.8
343.15 K, 40000 kPa | – | 220.5
343.15 K, 60000 kPa | – | 219.8
353.15 K, 100 kPa | 698.5 | 226.9
353.15 K, 10000 kPa | 709.4 | –
353.15 K, 20000 kPa | 718.5 | 223.3
353.15 K, 30000 kPa | 726.8 | –
353.15 K, 40000 kPa | 734.3 | 221.8
353.15 K, 50000 kPa | 741.2 | –
353.15 K, 60000 kPa | 747.6 | 221.1
353.15 K, 70000 kPa | 753.6 | –
353.15 K, 80000 kPa | 759.3 | –
353.15 K, 90000 kPa | 764.7 | –
353.15 K, 100000 kPa | 769.8 | –
353.15 K, 110000 kPa | 774.5 | –
353.15 K, 120000 kPa | 779 | –
353.15 K, 130000 kPa | 783.5 | –
353.15 K, 140000 kPa | 787.7 | –
363.15 K, 100 kPa | 688.6 | –
363.15 K, 10000 kPa | 700.1 | –
363.15 K, 20000 kPa | 710 | 225.1
363.15 K, 30000 kPa | 718.7 | –
363.15 K, 40000 kPa | 726.6 | 223.5
363.15 K, 50000 kPa | 733.9 | –
363.15 K, 60000 kPa | 740.6 | 222.6
363.15 K, 70000 kPa | 746.9 | –
363.15 K, 80000 kPa | 752.8 | –
363.15 K, 90000 kPa | 758.5 | –
363.15 K, 100000 kPa | 763.7 | –
363.15 K, 110000 kPa | 768.7 | –
363.15 K, 120000 kPa | 773.4 | –
363.15 K, 130000 kPa | 777.9 | –
363.15 K, 140000 kPa | 782.1 | –
373.15 K, 100 kPa | 679 | –
373.15 K, 10000 kPa | 691.5 | –
373.15 K, 20000 kPa | 702 | 227.4
373.15 K, 30000 kPa | 711.3 | –
373.15 K, 40000 kPa | 719.6 | 225.5
373.15 K, 50000 kPa | 727.1 | –
373.15 K, 60000 kPa | 734.1 | 224.5
373.15 K, 70000 kPa | 740.5 | –
373.15 K, 80000 kPa | 746.7 | –
373.15 K, 90000 kPa | 752.3 | –
373.15 K, 100000 kPa | 757.6 | –
373.15 K, 110000 kPa | 762.7 | –
373.15 K, 120000 kPa | 767.6 | –
373.15 K, 130000 kPa | 772.2 | –
373.15 K, 140000 kPa | 776.6 | –
383.15 K, 10000 kPa | 682.6 | –
383.15 K, 20000 kPa | 693.8 | 230
383.15 K, 30000 kPa | 703.7 | –
383.15 K, 40000 kPa | 712.3 | 227.8
383.15 K, 50000 kPa | 720.3 | –
383.15 K, 60000 kPa | 727.5 | 226.6
383.15 K, 70000 kPa | 734.3 | –
383.15 K, 80000 kPa | 740.6 | –
383.15 K, 90000 kPa | 746.5 | –
383.15 K, 100000 kPa | 752 | –
383.15 K, 110000 kPa | 757.2 | –
383.15 K, 120000 kPa | 762.2 | –
383.15 K, 130000 kPa | 766.8 | –
383.15 K, 140000 kPa | 771.4 | –
393.15 K, 10000 kPa | 673.1 | –
393.15 K, 20000 kPa | 685.2 | 232.9
393.15 K, 30000 kPa | 695.5 | –
393.15 K, 40000 kPa | 704.7 | 230.4
393.15 K, 50000 kPa | 713.2 | –
393.15 K, 60000 kPa | 720.8 | 229
393.15 K, 70000 kPa | 727.9 | –
393.15 K, 80000 kPa | 734.4 | –
393.15 K, 90000 kPa | 740.3 | –
393.15 K, 100000 kPa | 746 | –
393.15 K, 110000 kPa | 751.4 | –
393.15 K, 120000 kPa | 756.5 | –
393.15 K, 130000 kPa | 761.4 | –
393.15 K, 140000 kPa | 766 | –
403.15 K, 10000 kPa | 664.1 | –
403.15 K, 20000 kPa | 677 | 236.3
403.15 K, 30000 kPa | 687.8 | –
403.15 K, 40000 kPa | 697.3 | 233.3
403.15 K, 50000 kPa | 705.9 | –
403.15 K, 60000 kPa | 713.9 | 231.8
403.15 K, 70000 kPa | 721 | –
403.15 K, 80000 kPa | 727.8 | –
403.15 K, 90000 kPa | 734 | –
403.15 K, 100000 kPa | 739.9 | –
403.15 K, 110000 kPa | 745.4 | –
403.15 K, 120000 kPa | 750.7 | –
403.15 K, 130000 kPa | 755.7 | –
403.15 K, 140000 kPa | 760.5 | –
